Columns and labels:
Hepatitis C virus [1] = assay: Antiviral activity against Hepatitis C virus infected in human Huh7.5 cells after 96 hrs by fluorescence microscopic analysis; format: functional, organism-based, Hepacivirus hominis; details: huh-7
[2] = Cytotoxicity against human Huh7.5 cells treated after 96 hrs by MTT assay; format: cell-based, Huh-7
Hepatitis C virus [3] = assay: Selectivity index, ratio of CC50 for human Huh7.5 cells to EC50 for Hepatitis C virus; format: toxicity, cell-based, Huh-7; details: read-out: Ratio CC50/EC50
[4] = Down regulation of Hsc70 protein expression in Hepatitis C virus-infected human Huh7.5 cells […] at 0.1 ug/mL after 24 hrs by Western blotting analysis relative to actin expression; format: functional, cell-based; details: Huh-7
Huh-7 [5] = assay: Inhibition of Hsc70 mRNA expression in Hepatitis C virus-infected human Huh7.5 cells at 100 ug/mL after 24 hrs by RT-PCR analysis relative to control; format: functional; details: Huh-7, 24 h
[6] = Down regulation of Hsc70 protein expression in Hepatitis C virus-infected human Huh7.5 cells at 0.1 ug/mL after 24 hrs by Western blotting analysis relative to control; format: functional, cell-based; details: Huh-7
Huh-7 [7] = assay: Inhibition of Hsc70 mRNA expression in Hepatitis C virus-infected human Huh7.5 cells at 10 ug/mL after 24 hrs by RT-PCR analysis relative to control; format: functional; details: Huh-7, 24 h
[8] = Down regulation of Hsc70 protein expression in Hepatitis C virus-infected human Huh7.5 cells […] at 0.1 ug/mL after 24 hrs by Western blotting analysis relative to control; format: functional, cell-based; design: scale not given: the % may be the effect or the level left; details: Huh-7
[9] = Down regulation of Hsc70 protein expression in Hepatitis C virus-infected human Huh7.5 cells at 0.1 ug/mL after 24 hrs by Western blotting analysis relative to actin expression; format: functional, cell-based; details: Huh-7
[10] = Down regulation of Hsc70 protein expression in Hepatitis C virus-infected human Huh7.5 cells […] at 100 ug/mL after 24 hrs by Western blotting analysis relative to actin expression; format: functional, cell-based; details: Huh-7
[11] = Down regulation of Hsc70 protein expression in Hepatitis C virus-infected human Huh7.5 cells […] at 1 ug/mL after 24 hrs by Western blotting analysis relative to actin expression; format: functional, cell-based; details: Huh-7
[12] = Down regulation of Hsc70 protein expression in Hepatitis C virus-infected human Huh7.5 cells at 10 ug/mL after 24 hrs by Western blotting analysis relative to actin expression; format: functional, cell-based; details: Huh-7
[13] = Down regulation of Hsc70 protein expression in Hepatitis C virus-infected human Huh7.5 cells at 100 ug/mL after 24 hrs by Western blotting analysis relative to actin expression; format: functional, cell-based; details: Huh-7
[14] = Down regulation of Hsc70 protein expression in Hepatitis C virus-infected human Huh7.5 cells […] at 10 ug/mL after 24 hrs by Western blotting analysis relative to actin expression; format: functional, cell-based; details: Huh-7
[15] = Down regulation of Hsc70 protein expression in Hepatitis C virus-infected human Huh7.5 cells at 1 ug/mL after 24 hrs by Western blotting analysis relative to actin expression; format: functional, cell-based; details: Huh-7

EC50 (Hepatitis C virus [1]) [µM] | SMILES | CC50 at 96 h [2] [µM] | selectivity ratio (Hepatitis C virus [3]) | also measured
40 | C=CCO[C@H]1C=C2c3cc4c(cc3C(=O)N(CC=C)[C@H]2[C@@H]2OC(C)(C)O[C@@H]21)OCO4 | 250 | 6.25 | 
12 | C=CCO[C@@H]1[C@H](OCC=C)[C@@H](OCC=C)C[C@@H]2c3cc4c(cc3C(=O)N(CC=C)[C@@H]12)OCO4 | 38 | 3.17 | 
74 | C=CCO[C@@H]1[C@H](OCC=C)[C@@H](OCC=C)C=C2c3cc4c(cc3C(=O)N(CC=C)[C@H]21)OCO4 | 120 | 1.62 | 
93 | CO[C@H]1C=C2c3cc4c(cc3C(=O)N(C)[C@H]2[C@@H]2OC(C)(C)O[C@@H]21)OCO4 | 280 | 3.01 | 
63 | CC(=O)O[C@H]1C=C2c3cc4c(cc3C(=O)N[C@H]2[C@@H]2OC(C)(C)O[C@@H]21)OCO4 | > 300 | > 4.76 | 
43 | CCO[C@@H]1[C@H](OCC)[C@@H](OCC)C[C@@H]2c3cc4c(cc3C(=O)N(CC)[C@@H]12)OCO4 | > 300 | > 6.98 | 
65 | CC1(C)O[C@@H]2[C@H](O1)[C@@H](OCc1ccccc1)C=C1c3cc4c(cc3C(=O)N(Cc3ccccc3)[C@H]12)OCO4 | 200 | 3.08 | 
22 | CO[C@@H]1[C@H](OC)[C@@H](OC)C=C2c3cc4c(cc3C(=O)N(C)[C@H]21)OCO4 | 180 | 8.2 | 
15 | CCO[C@H]1C=C2c3cc4c(cc3C(=O)N(CC)[C@H]2[C@@H]2OC(C)(C)O[C@@H]21)OCO4 | 180 | 12 | 
11 | CC1(C)O[C@@H]2[C@H](O1)[C@@H](O)C=C1c3cc4c(cc3C(=O)N[C@H]12)OCO4 | 170 | 9.09 | 
> 83 | CCO[C@@H]1[C@H](OCC)[C@@H](OCC)C=C2c3cc4c(cc3C(=O)N(CC)[C@H]21)OCO4 | 252 | < 3.01 | 
54 | CO[C@@H]1[C@H](OC)[C@@H](OC)C[C@@H]2c3cc4c(cc3C(=O)N(C)[C@@H]12)OCO4 | > 300 | > 5.56 | 

Second part, the molecule before the results:

SMILES | EC50 (Hepatitis C virus [1]) [µM] | CC50 at 96 h [2] [µM] | selectivity ratio (Hepatitis C virus [3]) | also measured
CC(=O)O[C@H]1C[C@@H]2c3cc4c(cc3C(=O)N[C@H]2[C@@H]2OC(C)(C)O[C@@H]21)OCO4 | 89 | 270 | 3.03 | 
CC1(C)O[C@H]2[C@@H]3NC(=O)c4cc5c(cc4[C@H]3C[C@H](O)[C@H]2O1)OCO5 | > 11 | 280 | < 25.5 | 
CO[C@H]1C[C@@H]2c3cc4c(cc3C(=O)N(C)[C@H]2[C@@H]2OC(C)(C)O[C@@H]21)OCO4 | 92 | 250 | 2.17 | 
O=C1N[C@@H]2C(=C[C@H](O)[C@@H](O)[C@H]2O)c2cc3c(cc21)OCO3 | 0.55 | 7.2 | 12.7 | fold change (FC) [4]: 0.06; inhibition at 100 µg/mL (Huh-7 [5]): 83.1%; Activity [6]: 28%; inhibition at 10 µg/mL (Huh-7 [7]): 91.4%; Activity [8]: 6%; fold change (FC) [9]: 0.72
O[C@H]1[C@@H]2c3cc4c(cc3CN3CC[C@@H](C[C@H]1O)[C@H]23)OCO4 |  |  |  | fold change (FC) [10]: 0.1; fold change (FC) [4]: 1.2; fold change (FC) [11]: 1.16; fold change (FC) [12]: 0.6; fold change (FC) [13]: 0.67; fold change (FC) [14]: 1.22; fold change (FC) [9]: 1.01; fold change (FC) [15]: 0.68
O=C1N[C@H]2[C@H](O)[C@H](O)[C@@H](O)C[C@@H]2c2cc3c(cc21)OCO3 | 0.68 | 23 | 33.8 | 
CC1(C)O[C@@H]2[C@H](O1)[C@@H](O[Si](C)(C)C(C)(C)C)C=C1c3cc4c(cc3C(=O)N[C@H]12)OCO4 | 75 | 160 | 2.13 | 
CCO[C@H]1C[C@@H]2c3cc4c(cc3C(=O)N(CC)[C@H]2[C@@H]2OC(C)(C)O[C@@H]21)OCO4 | 85 | 260 | 3.06 | 
O[C@@H]1[C@H](O)[C@@H](O)C=C2c3cc4c(cc3CN[C@H]21)OCO4 | 33 | > 360 | > 10.9 | 
O[C@@H]1[C@@H](O)C=C2CCN3Cc4cc5c(cc4[C@H]1C23)OCO5 (stereo partly specified) |  |  |  | fold change (FC) [4]: 1.86; fold change (FC) [11]: 0.2; fold change (FC) [9]: 0.78; fold change (FC) [15]: 0.79
CC(=O)O[C@@H]1[C@H](OC(C)=O)[C@@H](OC(C)=O)C=C2c3cc4c(cc3C(=O)N[C@H]21)OCO4 [LYCORICIDINE TRIACETATE] | > 0.98 | 33 | < 33.8 | 
